Test results taken from patent US11414379B2, “SPAK kinase inhibitors as neuroprotective agents” (United States Government as represented by the Department …, priority 2018, dated 2022).

Assays:
[1] = system: Ang II-mediated hypertensive mice, pdMCAO; test: Infarct volume and hemispheric swelling after pdMCAO in Ang II-infused mice; assay type: in vivo, mouse; conditions: Ang II-infused mice (male or female); 2.5 mg/kg i.p. at 3 and 8 hrs after pdMCAO; 24 hrs; vs Veh
Protocol: C57BL/6J mice received subcutaneous (s.c.) infusion of either saline or AngII via osmotic minipumps (model 1004, Alzet) at a rate of 1000 ng/kg/min for 14 days. BP was measured in awake mice by a tail-cuff method (Kent Scientific) as described previously (Huang et al. (2019) Stroke. 50:1021-1025).
Saline-infused control and Ang II-mediated HTN mice were subsequently underwent permanent occlusion of the distal branches of the middle cerebral artery (pdMCAO) as described previously (Huang et al. (2019) Stroke. 50:1021-1025). Under isoflurane anesthesia, a skin incision at the midline of the neck was made and the left CCA was exposed and occluded by ligation and the skin was sutured. Another skin incision (1 cm) was made between the left eye and the ear using fine operation scissors. The temporal muscle was identified and detached from the skull in its apical and dorsal part without totally removing the muscle by the forceps. The MCA below the transparent skull in the rostral part of the temporal area, dorsal to the retro-orbital sinus was identified. If the MCA bifurcation was not visible (due to an anatomical normal variation), the most rostral vessel was identified. […] The artery, proximal and distal to the MCA bifurcation, was coagulated with the electrocoagulation forceps (in a bipolar mode at 7 W). […] The animal was placed in a cage and monitored for recovery from anesthesia. […]

[2] = system: AMPK (hum); test: Kinase panel (Dundee profiling); assay type: biochemical, human
Protocol: The kinase selectivity of ZT-1a was further assessed using standard radioisotopic enzymatic assays against a panel of 140 recombinant kinases (Dundee profiling, Table 2) (Bain et al. (2007) The Biochemical journal 408, 297-315). ZT-1a at a concentration of 10 μM inhibited only MAPKAP-K2 activity 85±7% compared to DMSO control, representing high kinase selectivity.
Referring to Table 2, ZT-1a was tested at 10 and 1 μM against a panel of 140 recombinant kinases in an enzymatic activity-based assay performed by the International Centre for Kinase Profiling in the MRC Protein Phosphorylation and Ubiquitylation Unit. Values represent % residual kinase activity (mean+/−SEM, n=3). Kinases labelled with an asterick* are inhibited ≥50% by ZT-1a.

[3] = system: wild type KCC2; test: 86Rb+ uptake assay in HEK293 cells; assay type: cell-based, human; conditions: n=3
Protocol: (§1) HEK293 cells were plated at 50-60% confluence of in 12-well plates (2.4-cm-diameter per/well) and transfected with wild-type or various mutant forms of full-length flag-tagged human KCCs. Each well of HEK293 cells was transfected with 2.5 μL of 1 mg/mL polyethylenimine and 1 μg of plasmid DNA. The ^86Rb^+-uptake assay was performed on cells at 36 hours post-transfection. Culture medium was aspirated from the wells and replaced with either isotonic or hypotonic medium for 15 min at 37° C., then for a further 15 min with stimulating medium containing additional 1 mM ouabain and 0.1 mM bumetanide, to prevent ^86Rb^+ uptake via the NKCC1 cotransporter. This stimulating medium was then removed and replaced with isotonic medium plus inhibitors containing 2 μCi/mL ^86Rb^+ for 10 min at 37° C., following which cells were rapidly washed three times with the respective ice-cold non-radioactive medium. The cells were lysed in 300 μL of ice-cold lysis buffer and ^86Rb^+ uptake was quantitated by liquid scintillation counting (PerkinElmer).
(§2) Referring to FIG. 8, ^86Rb^+ uptake assays in the presence of ZT-1a is shown. […] 10 min ^86Rb^+ uptake values were quantified by scintillation counting, normalized per mg protein for each condition and plotted for both isotonic and hypotonic conditions. Statistical significance was determined at p<0.05 (both panels).

[4] = system: KCC2 double mutant Thr906A1a/Thr1007Ala; test: 86Rb+ uptake assay in HEK293 cells; assay type: cell-based, human; conditions: n=3, p>0.05
Protocol: as §1, §2

Cc1cc(C(C#N)c2ccc(Cl)cc2)c(Cl)cc1NC(=O)c1cc(Cl)ccc1O (stereo not drawn) [ZT-1a, 5-chloro-N-(5-chloro-4-((4-chlorophenyl)(cyano)methyl)-2-methylphenyl)-2-hydroxy-benzamide]
decrease of hemispheric swelling [1]: ~50% | decrease of infarct volume [1]: ~50% | % residual kinase activity ([2]; 1 μM): 126 ± 4% | % residual kinase activity ([2]; 10 μM): 108 ± 4% | activation of WT KCC2 (86Rb+ uptake) [3]: > 2.6 fold | increase of activity of KCC2 double mutant (86Rb+ uptake) [4]: 7±2%
